In US20220096515A1, “Methods and Formulations for Preventing Neurological or Psychiatric Disorders” (Huntington Medical Research Institutes, priority 2020, published 2022):

Experiments:
Format in all cases: in vivo, mouse
[1] = tested on: Gabrb3^ECKO telencephalon; assay: Prenatal NAD+ treatment (E12-E17), histology/IHC of E18 telencephalon
Text: Animals: Timed pregnant CD1 mice were purchased from Charles River laboratories, MA. Colonies of GAD65-GFP mice were maintained in our institutional animal facility. Tie2-cre mice and Gabrb3 floxed (Gabrb3^fl/fl) mice were obtained from Jackson Labs. The Tie2-cre transgene is known for uniform expression of cre-recombinase in endothelial cells during embryogenesis and adulthood. To selectively delete Gabrb3 in endothelial cells, Tie2-cre transgenic mice (males) were crossed to Gabrb3^fl/fl mice (females) to generate Tie2-cre; Gabrb3^fl/+ mice (males). These were further crossed with Gabrb3^fl/fl mice (females) to obtain the Gabrb3 conditional knock-outs (Tie2-cre; Gabrb3^fl/fl mice). The day of plug discovery was designated embryonic day 0 (E0). Animal experiments were in full compliance with the NIH Guide for Care and Use of Laboratory Animals and were approved by the HMRI and McLean Institutional Animal Care Committees.
Histology, immunohistochemistry, and microscopic analysis: Paraffin immunohistochemistry (IHC) was performed on embryonic brains only while frozen section IHC was used on both embryonic and adult brains. Briefly, for paraffin IHC-E18 brains were fixed in zinc fixative (BD Biosciences PharMingen) for 24 h and processed for paraffin histology. Histological stainings with hematoxylin (Vector Laboratories) and eosin (Sigma) were performed on 8 μm coronal sections. Lectin histochemistry (with biotinylated isolectin B4, 1:50, Sigma) as well as IHC was performed on 20 μm sections. Primary antibodies used for IHC were as follows: anti-PHH3 (1:200, Millipore) and anti-NKX2.1, (1:50; Sigma) followed by secondary detection with AlexaFluor conjugates (Invitrogen). DAPI (Vector Laboratories) was used to label nuclei. For frozen section IHC, E18 and P90 brains were removed, fixed in 4% PFA for 24 hours, cryo-protected in sucrose gradient, embedded into OCT medium for frozen blocks; sectioned at 40 μm on a cryostat and immunostained with anti-GABA (1:80, Sigma) and anti -PROX1 (1:80, Millipore) antibodies. Twenty sections from each brain were used for IHC and histology experiments. Uniform penetration of antibodies or stains throughout the section was ascertained and quality of the staining in each digital section was examined. […] All low and high-magnification images were obtained from an FSX100 microscope (Olympus).
Morphometry: A stereological point grid was superimposed on digital images of biotinylated isolectin-B4+ vessels using ImageJ software. The ratio between points falling on blood vessels and on brain tissue was calculated for each section, and average values were obtained.
This vascular deficit in the embryonic telencephalon persisted in the adult cerebral cortex with larger vessel diameters likely correlating with increased perfusion and indicative of functional changes in blood flow in Gabrb3^ECKO vessels. A summary of the embryonic and postnatal phenotype highlights (FIG. 3A) the importance of the endothelial GABA pathway for telencephalic angiogenesis, and for maintaining neuro-vascular interactions. Therefore, given its pro-angiogenic properties (FIGS. 2A-2J), NAD^+ treatment during the prenatal period was tested for its ability to improve angiogenesis in the Gabrb3^ECKO telencephalon. The periventricular ventral-dorsal angiogenesis gradient is established by E11, after which neuronal cells originating from ventricular zones navigate along radial and tangential courses, to adopt final laminar positions and integrate into specific brain circuits. Therefore, the approach was to target only the critical window of mouse prenatal brain development: E12 to E17. In the Gabrb3^ECKO telencephalon, the periventricular vessel gradient is formed normally at E11, but reductions in vascular density and abnormal vascular profiles are observed from E13 onward. […]

Gabrb3^ECKO mice [2] = assay: Light-dark transition test; details: after prenatal treatment
Description: (§1) Behavioral Experiments: Mice were housed in our animal facility with a 12-hour light cycle with ad libitum access to food and water. Offspring stayed with their mothers until weaning at PND 21 after which males and females were separated. Before all behavioral testing, mice were acclimated to the testing room for 1 hour. Behavioral assays were performed according to established protocols referenced here: self-grooming, light-dark box, tail suspension test, Y-maze, open field locomotion activity, three chamber social interaction test and nest building with nestlets and with shredded paper. Both males and females were used for all behavioral assays. Experimenters scoring behaviors were blinded to the genotypes and treatment. Sample sizes for each assay are noted in figure legends.
Anxiety was next assessed with the classic light-dark transition test which triggers a struggle between the desires to explore a novel environment versus natural aversion of a brightly illuminated open space. […] The Y maze spontaneous alternation test was used to evaluate for spatial learning and memory in the three groups of mice. After introduction to the center of the maze, the mice were given free access to all three arms. […] The total number of arm entries and the sequence of entries are recorded in order to calculate the percentage of alternation. […]

Gabrb3^ECKO mice [3] = assay: Three-chamber social communication test
Description: as §1
This is indicative of rescue of social motivation, memory and novelty exploration in NAD^+-treated Gabrb3^ECKO mice (FIG. 14L).

NC(=O)c1ccc[n+]([C@@H]2O[C@H](COP(=O)([O-])OP(=O)(O)OC[C@H]3O[C@@H](n4cnc5c(N)ncnc54)[C@H](O)[C@@H]3O)[C@@H](O)[C@H]2O)c1 [NAD^+]
periventricular vessel densities ([1]; 10 mg in 100 μl saline i.p. daily to pregnant dams E12-E17, E18, vs saline-treated Gabrb3^ECKO): significant improvement in periventricular vessel densities | NKX2.1 expression in MGE ([1]; E18): significantly enriched in the MGE | PROX1 expression ([1]; E18): significantly increased | number of PHH3^+ cells at VZ/SVZ surface of ventral telencephalon ([1]; E18): significantly increased the number of PHH3^+ cells | profile of GABAergic neurons (GABA immunoreactivity) ([1]; E18): restored | vascular patterns around lateral ventricle / ganglionic eminence ([1]; E18, 20 μm sections): uniform vascular patterns were restored | cell cluster in MGE (H&E) ([1]; NAD^+-treated Gabrb3^ECKO mice, E18): a cluster of cells were observed in the medial ganglionic eminence (MGE) | overall morphology of telencephalon (H&E) ([1]; treatment E12 to E17, E18): significantly improved the overall morphology | time in light vs dark sides (Gabrb3^ECKO mice [2]): spent equivalent times between the light and dark sides of the open field | sociability: stranger mouse vs inanimate object (Gabrb3^ECKO mice [3]; sociability phase): interacted with the stranger mouse for a significantly longer duration than with the inanimate object | social novelty: stranger 2 vs familiar stranger 1 (Gabrb3^ECKO mice [3]; social novelty phase): marked preference for stranger 2
